Laboratory results from paper PMC7884786 (Translational Psychiatry, 2021).
Entries after “also recorded” stand apart in the source; their conditions may differ. Where two headings read alike, the source gives them in different places.

Experiments:
α2A-adrenergic receptor = α2A-adrenergic receptor (Rattus norvegicus, UniProt P22909); test: NanoBRET Gαi1 recruitment to α2A-adrenergic receptor; format: cell-based
Excerpt: For nanoBRET experiments, we used receptor constructs consisting of either human D2R (DRD2) and rat α2A-adrenergic receptor (Adra2a) cDNAs fused to HaloTag at the C-terminus (α2A-AR-HaloTag and D2R-HaloTag). Both receptors were also tagged at the N terminus with an IL6 signal sequence followed by a HiBiT tag. […] All constructs were cloned into a pcDNA3.1(+) vector backbone (ThermoFisher Scientific) and confirmed by sequencing analysis.
For NanoLuc-only controls, empty pcDNA3.1(+) vector was used to maintain a constant amount of total transfected DNA.
Cells were harvested, washed, and resuspended in fresh medium 24 h post-transfection. Approximately 5 × 10^4 cells/well were distributed in pre-coated 96-well plates and allowed to adhere overnight (37 °C, 5% CO2). […] Following labeling, cells were washed once with HBSS, and 5 μM furimazine (substrate for NanoLuc) was added to every well. Drugs were then added to the samples and incubated for […]. Plates were read 5 min following drug addition using a PheraStar FSX equipped with a nanoBRET-compatible optic module (LUM 610 450) (BMG Labtech). […] EC50 values were calculated via a non-linear regression analysis via GraphPad software.

parental INS-1E cells = test: Glucose-stimulated insulin secretion (GSIS) in parental INS-1E cells; format: cell-based; conditions: Rattus norvegicus, 1.5 h, read-out: IC50, inhibition of GSIS
[1] = test system: α-cell glucagon secretion in human islets; test: Islet secretion assay: glucagon secretion from human islets; format: cell-based; conditions: for effect on glucagon secretion: increasing concentrations, relative to vehicle control; for increase in glucagon secretion compared to vehicle / effect on α-cell glucagon secretion: 1 µM; for effect on α-cell glucagon secretion: relative to vehicle
Protocol: (§1) For mouse pancreatic islet preparations, islets were obtained from 8 to 10-week-old wild-type BALB/c mice. Islets were freshly isolated via collagenase digestion of pancreata as described previously. Human pancreatic islets were isolated via collagenase digestion and purified from four non-diabetic human donors (Supplementary Table S1) as described previously. Following isolation and purification, human or mouse islets were plated at a density of 15 islets per well into 24-well tissue culture-treated plates. […] The islets were used immediately after overnight recovery for hormone secretion assays.
(§2) Measurements of hormone secretion were performed using static incubation of pancreatic islets. […] The increased glucose (25 mM) was used to inhibit α-cell glucagon secretion to diminish glucagon levels to basal levels to improve the dynamic range of the assay and thus effectively unmask the role of ligand-mediated glucagon secretion as described earlier. Islets were then transferred to a 24-well plate containing KRB buffer also supplemented with 25 mM glucose. Drug treatments were added in KRB (25 mM glucose) (1 hr, 37 °C, 5% CO2). After treatment, KRB was supplemented with a protease inhibitor cocktail (1 tablet/10 mL KRB; Roche Diagnostics, Mannheim, Germany) to prevent glucagon degradation. Supernatants were collected and placed on ice to further prevent glucagon degradation and precipitation. Undiluted supernatants and 1:2 dilutions were used for the glucagon detection assay, while 1:10 dilutions were used for insulin measurement; all dilutions were in KRB.

[2] = test system: glucose-stimulated insulin secretion (GSIS) from β-cells in human islets; test: Islet secretion assay: insulin secretion from human islets; format: cell-based; conditions: for IC50: read-out: IC50, reduction of insulin secretion (GSIS); for increase in GSIS compared to vehicle / effect on glucose-stimulated insulin secretion: 1 µM; for effect on glucose-stimulated insulin secretion: relative to vehicle
Protocol: as §1, with “Islets” for “For mouse pancreatic islet preparations, islets were obtained from 8 to 10-week-old wild-type BALB/c mice. Islets”
(§3) Measurements of hormone secretion were performed using static incubation of pancreatic islets. […] Islets were then transferred to a 24-well plate containing KRB buffer also supplemented with 25 mM glucose. Drug treatments were added in KRB (25 mM glucose) (1 hr, 37 °C, 5% CO2). After treatment, KRB was supplemented with a protease inhibitor cocktail (1 tablet/10 mL KRB; Roche Diagnostics, Mannheim, Germany) to prevent glucagon degradation. Supernatants were collected and placed on ice to further prevent glucagon degradation and precipitation. Undiluted supernatants and 1:2 dilutions were used for the glucagon detection assay, while 1:10 dilutions were used for insulin measurement; all dilutions were in KRB.

[3] = test system: α-cell glucagon secretion from mouse islets; test: Islet secretion assay: glucagon secretion from mouse islets; format: cell-based; conditions: for EC50: read-out: EC50, increase in secreted glucagon
Protocol: as §1, §2

[4] = test system: glucose-stimulated insulin secretion (GSIS) from β-cells in mouse islets; test: Islet secretion assay: insulin secretion from mouse islets; format: cell-based
Protocol: as §1, with “Islets” for “For mouse pancreatic islet preparations, islets were obtained from 8 to 10-week-old wild-type BALB/c mice. Islets”
as §3

[5] = test system: α2A-adrenergic receptor KO INS-1E cells; test: cells; conditions: Rattus norvegicus, read-out: IC50, inhibition of GSIS
Excerpt: (§5) We employed a CRISPR-Cas9-mediated approach to delete endogenous α2A-adrenergic receptor expression in INS-1E cells. Since INS-1E cells are rat-derived, we used the mRNA sequence encoding rat α2A-adrenergic receptor as a template to generate guide RNA (gRNA) to disrupt the promoter region of the Adra2a gene (gRNA sequence: 5′-[sequence]-3′, positions 57–76). We then generated a construct containing the Adra2a gRNA sequence along with cDNA sequences encoding Cas9 and GFP (pENTR-Adra2a-sgRNA-Cas9-GFP). 1–5 μg of the construct was subsequently transfected into low-passage INS-1E cells using Lipofectamine 3000 (ThermoFisher Scientific) according to manufacturer instructions. 24–48 h post-transfection, the transfected cells were identified and collected by fluorescence-activated cell sorting based on GFP fluorescence using a BD FACSAria II sorter (BD Biosciences, San Jose, CA) equipped with a GFP filter (530/30 nm).
(§6) Insulin secretion assays in INS-1E cells were conducted as described earlier[7],[42]. […] Insulin secretion was carried out 48 h after seeding the cells. On an experimental day, cells were first glucose-starved in KRB (0 mM glucose) for 1 h (37 °C, 5% CO2), followed by glucose stimulation with KRB supplemented with 20 mM glucose in the presence or absence of drugs for 90 min (37 °C, 5% CO2). The supernatants were collected and diluted 1:10 in KRB for the insulin detection assay.
(§7) The assay is based on homogeneous time-resolved fluorescence resonance energy transfer (HTRF) technology. Standard curve and assay samples (10 μL/well) were plated into a 384-well white, low-volume, round-bottom plate (Corning, Corning, NY). […] Secreted insulin was similarly detected and measured by an HTRF approach using the insulin high range detection kit (Cisbio Bioassays) as described previously[42]. The two anti-insulin antibodies were mixed in a 1:2 donor (cryptate)/acceptor (XL665) ratio in the insulin assay detection buffer (Cisbio Bioassays) and 15 µL of the insulin antibody mix was added per well. For both glucagon and insulin HTRF assays, the incubation time was 2 h at room temperature. […] The raw data were obtained in ng/mL insulin secreted and pg/mL glucagon secreted. Dose-response curves were fit via non-linear regression of Log[ligand] versus normalized % glucagon or insulin secretion. Investigators were blinded to the identity of samples during the initial analysis.

[6] = molecular target: T1, endogenous α2A-adrenergic receptors in INS-1E cells (Rattus norvegicus, UniProt P22909); test: [3H]RX821002 radioligand binding, INS-1E cell membranes; conditions: for Bmax, saturation binding / Kd: parental INS-1E cell membranes; for Kd: read-out: KD, saturation binding
T1 construct: adherent INS-1E cells expressing the endogenous α2A-adrenergic receptors; endogenous in cells; host or cells: INS-1E (rat insulinoma) cell membranes
T1 sequence (P22909 1-465): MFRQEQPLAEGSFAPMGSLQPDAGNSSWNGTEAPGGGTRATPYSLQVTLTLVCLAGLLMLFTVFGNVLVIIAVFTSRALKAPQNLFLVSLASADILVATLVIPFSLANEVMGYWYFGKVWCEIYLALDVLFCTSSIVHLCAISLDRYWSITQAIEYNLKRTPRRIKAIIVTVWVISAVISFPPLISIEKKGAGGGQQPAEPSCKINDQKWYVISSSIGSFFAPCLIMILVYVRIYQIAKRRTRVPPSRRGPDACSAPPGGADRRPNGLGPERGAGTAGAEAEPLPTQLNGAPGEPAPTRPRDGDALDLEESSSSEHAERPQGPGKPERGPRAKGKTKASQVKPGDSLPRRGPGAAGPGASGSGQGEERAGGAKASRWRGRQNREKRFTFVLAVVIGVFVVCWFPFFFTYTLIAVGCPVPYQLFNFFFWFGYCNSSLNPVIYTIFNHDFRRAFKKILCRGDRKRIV
Protocol: (§4) Radioligand binding and competition assays were conducted as previously described. Briefly, adherent INS-1E cells expressing the endogenous α2A-adrenergic receptors or transfected HEK-293 cells overexpressing human α2A-adrenergic receptor were dissociated from plates, and intact cells collected by centrifugation (600–900 g, 5–10 min, 4 °C). Cells were resuspended and lysed using 5 mM Tris-HCl and 5 mM MgCl2 (pH 7.4, 4 °C). Cell lysates were pelleted by centrifugation at 30,000 × g for 30 min and resuspended in Earle’s Balanced Salt Solution with Ca^2+ (pH 7.4). For saturation binding assays, cell lysates (100 µL, 2–5 μg of protein for HEK-293 cells and 10–20 μg of protein for INS-1E cells, quantified by the Bradford Assay) were incubated with the indicated concentrations of [^3H]RX821002 (90 min, room temperature). […] The bound ligand was separated from free ligand by filtration through a Perkin Elmer Unifilter-96 GF/C 96-well microplate using the Perkin Elmer Unifilter-96 Harvester (Perkin Elmer, Waltham, MA), followed by three washes with ice-cold assay buffer. After drying, a liquid scintillation cocktail (MicroScint PS; Perkin Elmer) was added to each well, and plates were sealed and analyzed on a Topcount NXT liquid scintillation counter (Perkin Elmer). Ki values were calculated from observed IC50 values using the Cheng–Prusoff equation[47].

αTC1–6 cells = test: Catecholamine secretion assay with HPLC measurement; format: cell-based, mouse
Protocol: Cell-based catecholamine secretion assays were conducted as reported earlier[7]. Briefly, αTC1–6 cells were seeded into 24-well plates at an initial seeding density of 5 × 10^5 cells/well in complete DMEM medium. […] Some samples were also supplemented with 10 μM L-DOPA to boost cell catecholamine production in the presence or absence of a monoamine oxidase inhibitor cocktail (10 μM: deprenyl, pargyline, clorgyline). […] Lysates were collected and centrifuged at 17,000 rpm for 5 min at 4 °C to pellet cell debris and then added into HEGA buffer for High-Performance Liquid Chromatography (HPLC) analysis.
Assay samples were filtered (0.20 μm filter; ThermoFisher Scientific) and analyzed via HPLC with electrochemical detection as previously reported[7]. Briefly, samples were separated on a C18 reverse-phase column (Hypersil ODS C18 column, ThermoFisher Scientific) with MD-TM mobile phase (ThermoFisher Scientific).

[7] = test system: membranes from α2A-adrenergic receptor KO INS-1E cells; test: [3H]RX821002 saturation binding, α2A-adrenergic receptor KO INS-1E cell membranes; set-up: species or system rat
Protocol: as §4

[8] = molecular target: T2, human α2A-adrenergic receptor (Homo sapiens, UniProt P08913); test: [3H]RX821002 radioligand binding, HEK-293 cells overexpressing α2A-adrenergic receptor; conditions: membranes from HEK-293 cells overexpressing human α2A-adrenergic receptor
T2 construct: expressed in transfected cells; host or cells: HEK-293 (ATCC CRL-1573), transient transfection
T2 sequence (P08913 1-465): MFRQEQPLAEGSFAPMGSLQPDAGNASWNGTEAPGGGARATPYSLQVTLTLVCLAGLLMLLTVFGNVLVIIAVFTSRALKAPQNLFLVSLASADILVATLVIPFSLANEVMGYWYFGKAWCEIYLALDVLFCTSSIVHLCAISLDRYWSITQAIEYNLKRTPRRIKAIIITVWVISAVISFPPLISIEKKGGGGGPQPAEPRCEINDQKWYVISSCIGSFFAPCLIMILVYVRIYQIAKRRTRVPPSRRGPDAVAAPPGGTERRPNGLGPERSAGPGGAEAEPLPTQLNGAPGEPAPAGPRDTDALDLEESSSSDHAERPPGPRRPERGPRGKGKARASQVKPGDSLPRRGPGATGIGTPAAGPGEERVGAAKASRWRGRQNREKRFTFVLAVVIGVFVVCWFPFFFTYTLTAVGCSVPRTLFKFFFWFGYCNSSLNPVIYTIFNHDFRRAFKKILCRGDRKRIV
Protocol: as §4

[9] = test system: α2A-adrenergic receptor KO INS-1E cells; conditions: α2A-adrenergic receptor KO INS-1E cells compared to parental
Excerpt: as §5, §6, §7

[10] = 10 μM L-DOPA supplementation, compared to untreated cells
[11] = parental INS-1E cells, 20 mM glucose, 90 min

Sequence of α2A-adrenergic receptor (P63096 2-354 partner limits assumed, one chain of several): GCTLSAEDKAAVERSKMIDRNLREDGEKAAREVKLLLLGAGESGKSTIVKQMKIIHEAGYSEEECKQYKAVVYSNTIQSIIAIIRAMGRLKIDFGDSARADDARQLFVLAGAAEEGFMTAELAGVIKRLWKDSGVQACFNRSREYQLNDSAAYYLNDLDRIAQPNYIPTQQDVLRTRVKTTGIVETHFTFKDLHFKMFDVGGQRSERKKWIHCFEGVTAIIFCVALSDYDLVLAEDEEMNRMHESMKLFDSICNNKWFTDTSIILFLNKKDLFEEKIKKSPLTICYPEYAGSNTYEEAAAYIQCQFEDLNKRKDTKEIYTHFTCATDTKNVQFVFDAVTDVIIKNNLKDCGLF

## NCCc1ccc(O)c(O)c1 [DA, Dopamine]
α2A-adrenergic receptor
  EC50: 2100 ± 2 nM
Parental INS-1E cells; INS-1E
  IC50: 1500 ± 2 nM
[1]
  effect on glucagon secretion: biphasic glucagon secretory response
[2]; Homo sapiens
  IC50: 26.2 ± 2.9 nM
[3]; Mus musculus, 1 h
  EC50: 14.9 ± 3.8 nM
[4]; Mus musculus, read-out: IC50, reduction of insulin secretion (GSIS), mouse islets
  IC50: 1290 ± 2 nM
[4]; read-out: IC50, reduction of insulin secretion (GSIS), mouse islets
  IC50: 1300 ± 2 nM
[5]
  IC50: 474 ± 2.5 nM
[6]
  Ki: 164 ± 1.2 nM

## N[C@@H](Cc1ccc(O)c(O)c1)C(=O)O [L-DOPA, L-3,4-dihydroxyphenylalanine]
αTC1–6 cells; [10]
  fold increase in NE: 3 fold
  fold increase in α-cell DA secretion: 60 fold
αTC1–6 cells; pre-incubation with 10 μM L-DOPA
  DA levels, fold more compared to NE: 27 fold

## NC[C@H](O)c1ccc(O)c(O)c1 [NE, norepinephrine]
Parental INS-1E cells; [11]
  IC50: 39.8 ± 1.5 nM
[1]
  effect on glucagon secretion: significantly enhance glucagon secretion; also recorded: significantly increased α-cell glucagon secretion
[2]; Homo sapiens, human islets
  IC50: 787.2 ± 1.3 nM
[2]; human islets
  IC50: 787 ± 1.3 nM
[3]; Mus musculus, 1 h, mouse islets, 25 mM glucose, 1 hr
  EC50: 142 ± 2.3 nM
[3]; mouse islets, 25 mM glucose, 1 hr
  EC50: 142 ± 2.3 nM
[4]; Mus musculus, mouse islets, read-out: IC50, reduction of insulin secretion (GSIS)
  IC50: 178 ± 2.4 nM
[4]; mouse islets, read-out: IC50, reduction of insulin secretion (GSIS)
  IC50: 179 ± 2.4 nM
[5]
  IC50: 1400 ± 2 nM

## COC1(C2=NCCN2)COc2ccccc2O1 (centres unmarked) [[^3H]RX821002]
[7]
  Bmax, saturation binding: 29.1 ± 4.3 fmol/mg protein
[6]
  Bmax, saturation binding: 110 ± 3.3 fmol/mg protein
  Kd: 0.1 ± 0.02 nM
[6]; listed as [3H]RX821002
  Bmax, saturation binding: 110±0.02 fmol/mg protein
  Kd: 0.098 ± 0.02 nM
[8]
  Bmax, saturation binding: 5691 ± 103 fmol/mg protein
[8]; listed as [3H]RX821002
  Bmax, saturation binding: 5691±103 fmol/mg protein
[8]; read-out: KD, saturation binding
  Kd: 0.67 ± 0.05 nM

## Clc1cccc(Cl)c1N=C1NCCN1 [clonidine]
[9]
  GSIS inhibition in KO cells: attenuated; also recorded: virtually eliminated
Parental INS-1E cells; [11]
  IC50: 12.7 ± 1.3 nM

## CN1CCN(C2=Nc3cc(Cl)ccc3Nc3ccccc32)CC1 [clozapine]
[1]
  increase in glucagon secretion compared to vehicle: 200.2 ± 21.7%
  effect on α-cell glucagon secretion: significantly raised α-cell glucagon secretion
[2]; human islets
  increase in GSIS compared to vehicle: 19.8 ± 4.0%
  effect on glucose-stimulated insulin secretion: raised glucose-stimulated insulin secretion

## O=C(CCCN1CCC(O)(c2ccc(Cl)cc2)CC1)c1ccc(F)cc1 [haloperidol]
[1]
  increase in glucagon secretion compared to vehicle: 67.1 ± 13.6%
  effect on α-cell glucagon secretion: significantly raised α-cell glucagon secretion
[2]; human islets
  increase in GSIS compared to vehicle: 24.1 ± 4.6%
  effect on glucose-stimulated insulin secretion: raised glucose-stimulated insulin secretion

## Cc1cc2c(s1)Nc1ccccc1N=C2N1CCN(C)CC1 [olanzapine]
[1]
  increase in glucagon secretion compared to vehicle: 105.7 ± 23.4%
  effect on α-cell glucagon secretion: significantly raised α-cell glucagon secretion
[2]; human islets
  increase in GSIS compared to vehicle: 43.6 ± 3.1%
  effect on glucose-stimulated insulin secretion: raised glucose-stimulated insulin secretion

## CC(C)NC[C@H](O)COc1cccc2ccccc12 [propranolol, S-(−)-propranolol]
[3]; mouse islets, propranolol 100 nM pre-treatment prior to DA
  effect of propranolol on DA-induced glucagon secretion: attenuates DA’s enhancement of glucagon secretion; also recorded: eliminated DA-induced increases in α-cell glucagon secretion
